The numbers were not newly measured in article PMC2891520 (The Journal of neuroscience : the official journal of the …, 2010), which cites them from elsewhere.

This data set concerns the target CaMKII (Homo sapiens, UniProt Q9UQM7). As to conditions: ref Vest et al., 2010.

For the compound `COc1ccc(S(=O)(=O)N(CCO)c2ccccc2CN(C)C/C=C/c2ccc(Cl)cc2)cc1` [KN93], the “block of autonomous CaMKII activity once generated” value is listed as “does not block autonomous activity once it is generated”.
